These results are taken from patent publication US20200405881A1, “CELL BASED METHODS AND COMPOSITIONS FOR THERAPEUTIC AGENT DELIVERY AND TREATMENTS USING SAME” (UNIVERSITY OF WASHINGTON, priority 2017, published 2020).

Series [1] concerns macrophages. Briefly: Free resiquimod and galunisertib testing, cytokines and phenotype (Example 9). It is filed as cell-based, human. The settings on record: Galunisertib 56 nM for 1 hour, on its own. On the procedure:
(§1) Methods: CD14+ monocytes were isolated from PBMCs and differentiated to macrophages in RPMI/10% FBS with 10 ng/mL GM-CSF or 25 ng/ml M-CSF for 6 days. Macrophages were incubated with Resiquimod (1 ug/ml) and/or Galunisertib (56 nM) for 1 hour, then stimulated with 1 ug LPS/100U/ml IFNg to determine impact on viability using flow cytometry of cells and pro-inflammatory responsiveness using a 30plex for human cytokines on cell supernatant 24 hours after stimulation. Expression of bFGF, IL-1B, GCSF, IL10, 1L^13, IL6, IL12, Rantes, MIP1a, GMCSF, MIP1B, MCP1, IL15, EGF, IL5, HGF, VEGF, IFNg, IFNa, IL1RA, TNFa, IL7, IP10, IL2R, MIG, and IL8 was measured in the following treatment groups: M1 control, M1 resiquimod, M1 galunisertib, M1 resiquimod+galunisertib, M1 LPS/IFNg+resiquimod, M1 LPS/IFNg+galunisertib, M1 LPS/IFNg+resiquimod, +galunisertib, M2 control, M2 resiquimod, M2 galunisertib, M2 resiquimod+galunisertib, M2 LPS/IFNg+resiquimod, M2 LPS/IFNg+galunisertib, and M LPS/IFNg+resiquimod, +galunisertib (data not shown). […]

Another series concerns primary macrophages. As to the kind of experiment: Free resiquimod and galunisertib testing, toxicity (Example 9). In kind it is cell-based, human. The settings on record: Resiquimod 1 ug/ml and/or Galunisertib 56 nM, alone or in combination. On the procedure: as §1
The subject of series [2] is macrophages. As to the kind of experiment: Toxicity of drugamers to macrophages (Examples 5 and 6). The settings on record: 50 or 500 ng/mL drugamer; data not shown. In kind it is cell-based. On the procedure: Methods: CD14+ monocytes were isolated from PBMCs and differentiated to macrophages in RPMI/10% FBS with 10 ng/mL GM-CSF. After 6 days in culture, cells were replated into a 12 well dish, with 250K cells/well. The following day, they were mock transduced or transduced with vector control (EGFRt) or membrane-bound anti-FITC:EGFRt. Media was changed every 3 days. Seven days after transduction, all cells were washed twice with PBS and treated with either 50 or 500 ng/mL drugamer, which contained FITC and CMP8, in PBS. After a 15 min incubation at 37° C., cells were washed twice with PBS and one group of cells (“15 min”) was non-enzymatically detached with VERSENE™ and immediately fixed for flow with 2% paraformaldehyde. After the PBS wash, the other group of cells was allowed to recover in RP10 for 72 hours before detaching/fixing
Methods: CD14+ monocytes were isolated from PBMCs and differentiated to macrophages in RPMI/10% FBS with 10 ng/mL GM-CSF. After 6 days in culture, cells were replated into a 12 well dish, with 250K cells/well. The following day, they were mock transduced or transduced with vector control (EGFRt) or membrane-bound anti-FITC:EGFRt. Media was changed every 3 days. […] Rhodamine fluorescence was measured, indicating the presence of drugamer following 10 days in culture (data not shown).

A further series concerns M1 polarized macrophages. As to the kind of experiment: Free PI103 testing, 30plex cytokines, M1 macrophages (Example 8). It is filed as cell-based, human. The settings on record: 500 nM PI103 for 1 hour, then LPS/IFNg, 24 hours. On the procedure: (§2) Methods: CD14+ monocytes were isolated from PBMCs and differentiated to macrophages in RPMI/10% FBS with 10 ng/mL GM-CSF or 25 ng/ml M-CSF for 6 days. Macrophages were incubated with 500 nM PI103 for 1 hour, then stimulated with 1 ug LPS/100U/ml IFNg to determine impact on viability using flow cytometry of cells and pro-inflammatory responsiveness using a 30plex for human cytokines on cell supernatant 24 hours after stimulation. The expression of MIP1B, MCP1, IL15, EGF, HGF, VEGF, IFNg, IFNa, IL1RA, TNFa, IL7, IP10, IL2R, MIG, IL4, and IL8 was determined for each of the following groups: M1 control, M1 PI103, M1 LPS/IFNg, M1 PI103 LPS/IFNg, M2 control, M2 PI103, M2 LPS/IFNg, and M2 PI103 LPS/IFNg (data not shown). A summary of the significant data when using t-test to compare between treatment groups with and without Pi103 is shown for M1 macrophages in FIG. 22A and M2 macrophages in FIG. 22B.

In another series the test system is M2 polarized macrophages. As to the kind of experiment: Free PI103 testing, 30plex cytokines, M2 macrophages (Example 8). In kind it is cell-based, human. The settings on record: 500 nM PI103 for 1 hour, then LPS/IFNg, 24 hours. On the procedure: as §2
For series [3], the system named is MCSF polarized M2 macrophages. Briefly: Free PI103 testing, flow cytometry of surface markers (Example 8). In kind it is cell-based, human. The settings on record: 500 nM PI103. On the procedure: as §2, with “22B. Flow cytometry staining included Live/Dead, HLA-DR, CD11b and CD14 to confirm expression of macrophage surface markers and viability (data not shown), as well as CD206 (anti-inflammatory macrophage marker; data not shown), CD163 (anti-inflammatory macrophage marker; data not shown), CD80 and CD86 (costimulatory molecules; data not shown).” for “22B.”
Background: Flow cytometry measures light scatter and fluorescence of single cells or particles in a stream.

Series [4] has as its system CCR expressing CAR T cells. Briefly: Exhaustion marker expression on CAR T cells cultured with macrophage derived IL-7 (Example 10). The settings on record: in contrast to culture with recombinant IL-7, FIG. 23C. In kind it is cell-based. On the procedure:
Methods: CD14+ monocytes were isolated from PBMCs and differentiated to macrophages in RPMI/10% FBS with 10 ng/mL GM-CSF. After 6 days in culture, cells were replated into a 12 well dish, with 250K cells/well. The following day, they were mock transduced or transduced with vector control (EGFRt) or a vector encoding constitutive IL-7 under the control of the EF1a promoter. Autologous T cells were transduced with a chimeric cytokine receptor shown on FIG. 23A, and an anti-EGFRvIII specific CAR. T cells were magnetically separated based on CD4 and CD8 expression and expanded in vitro using Miltenyi CD3/CD28 beads and frozen. CFSE Cell Trace labeled CD4 or CD8 T cells were used in proliferation assays in response to IL-7 transduced macrophages.

As for `Cc1cccc(-c2nn3c(c2-c2ccnc4ccc(C(N)=O)cc24)CCC3)n1` [Galunisertib], the “phenotypic or functional response to stimulation” value with macrophages [1] was “little impact on phenotypic or functional response to stimulation”. Moreover, the “toxicity to primary macrophages” value in the series on primary macrophages is listed as “neither molecule alone or in combination is toxic to primary macrophages”.

For the molecule `O=C1CCC2(Cc3ccc(Cl)cc3)Cc3cc(O)ccc3C2=C1c1ccc(OCCN2CCCCC2)cc1` (stereo not shown) [CMP8, 9a-(4-Chlorobenzyl)-7-hydroxy-4-[4-(2-piperidin-1-ylethoxy)phenyl]-1,2,9,9a-tetrahydro-3H-fluoren-3-one], in the series on macrophages [2], the toxicity to macrophages result is recorded as “toxicity is linked to CMP8”.

Consider `Oc1cccc(-c2nc(N3CCOCC3)c3oc4ncccc4c3n2)c1` [PI103], for which, in the series on M1 polarized macrophages, the pro-inflammatory cytokine production entry was “decrease”. Also, the “pro-inflammatory TNFalpha production” value in the series on M2 polarized macrophages is reported as “increase”. In series [3], the “antigen presentation surface proteins CD80 and CD86” value is listed as “increase”; the “surface markers consistent with an anti-inflammatory phenotype” value is given as “decrease”.

Turning to `CCOCc1nc2c(N)nc3ccccc3c2n1CC(C)(C)O` [resiquimod], the “toxicity to primary macrophages” value in the series with primary macrophages is listed as “neither molecule alone or in combination is toxic to primary macrophages”.

B1: macrophage derived IL-7: IL-7 produced by macrophages transduced with a vector encoding constitutive IL-7 (protein, UniProt P13232 26-177, looked up)
Interleukin-7: DCDIEGKDGKQYESVLMVSIDQLLDSMKEIGSNCLNNEFNFFKRHICDANKEGMFLFRAARKLRQFLKMNSTGDFDLHLLKVSEGTTILLNCTGQVKGRKPAALGEAQPTKSLEENKSLKEQKKLNDLCFLKRLLQEIKTCWNKILMGTKEH
Regarding B1, the results for the “expression of exhaustion markers TIM3, PD-1, and CD95” value in series [4] and in series [4] (listed as GEM derived IL-7) were “reduced” and “reduces exhaustion marker expression”, respectively.
